One assay has as its system IKK. Nature of the assay: IκBα phosphorylation in PMA-stimulated Myc-CaP cells. It is filed as cell-based, mouse. To be noted: 1 hr pre-treatment, AG490 100 μM, PMA 10 ng/ml 10 min. On the procedure:
(§1) FIG. 15. Selectivity of IKKβ and STAT3 phosphorylation inhibitors. A. Myc-CaP cells were cultured to 60% confluency and pre-treated for 1 hr with AG490 (100 μM) or ML120B (20 μM), followed by stimulation with PMA (10 ng/ml) for 10 min. Cells were collected and IκBα phosphorylation was analyzed. B. Myc-CaP cells were pre-treated with AG490 or ML120B and after 1 hr, were stimulated with IL-6 (20 ng/ml) for 30 min. Cells were collected and STAT3 phosphorylation was analyzed by immunoblotting.
(§2) Total tissue RNA was prepared using RNAeasy (Qiagen). Quantitative PCR was performed as described^38. Cells and tumors were lysed and analyzed by SDS-polyacrylamide gel electrophoresis and immunoblotting^38 with antibodies to histone H3, α-tubulin, STAT3 (Santa Cruz Biotechnology), ERK, phospho-ERK, AKT, phospho-AKT, phospho-STAT3 (Cell Signaling). Nuclear extracts were prepared and analyzed for NF-κB DNA-binding as described^39.

In the next assay the test system is myc-CaP tumors. Briefly: CR-CaP re-growth (tumor volume) of s.c. myc-CaP allografts after castration. It is filed as in vivo, FVB mice. The following applies: castrated mice bearing s.c. myc-CaP tumors. On the procedure: FIG. 4. IKKβ-dependent lymphotoxin production by tumor-infiltrating B cells stimulates IKKα-dependent androgen-free survival. A. RNA from splenic B cells of Ikkβ^F/F and Ikkβ^Δ/Δ mice was analyzed for LTα and LTβ expression as above. Results are averages±s.d. (n=3). B. Lethally irradiated FVB males were reconstituted with BM from B-Ltβ^−/− or T-Ltβ^−/− mice (n=6 per group). After 8 weeks, myc-CaP tumors were established, mice were castrated and tumor volume was measured as above. Results are averages±s.e.m. C. FVB mice (n=6 each group) bearing myc-CaP tumors were castrated and given hIgG or LTβR-Ig (100 μg) every 5 days, starting 4 days before castration. Tumor volume was measured as above. Results are averages±s.e.m. […] Mice were castrated and tumor volume was measured. […] After 6 hrs, the cells were cultured with or without flutamide (10 μM) in the absence or presence of LTα2β1, and cell number was determined. […] After 12 hrs, cells were stimulated for 1 hr with LTα2β1, collected, divided into cytosolic (C) and nuclear (N) fractions and IKKα and histone H3 distribution was determined. In A, B, C, D and E, P values were determined and are indicated as above.
FIG. 8. […] Five months later, mice were sacrificed and prostate tumor weight and incidence of lymph node, lung and liver metastases were determined. […] Tumor volume in above mice was measured every 2-3 days. […] Tumor volume was measured as above. […]

The subject of assay [1] is STAT3. Briefly: STAT3 phosphorylation in myc-CaP tumors after castration (immunohistochemistry). The following applies: phospho-STAT3 staining. Type of assay: in vivo, FVB mice. The source says: FIG. 14. STAT3 activation and its role in CR-CaP emergence. A,B WT+Ikkβ^F/F and WT+Ikkβ^Δ/Δ radiation chimeras (n=10 each group) bearing myc-CaP allografts were established as above and injected with poly(IC) to delete IKKβ[…] in BMDC before castration or sham operation. After one month, mice were sacrificed for analysis. A. Lymphocytes were isolated from indicated tissues and analyzed for IKKβ expression. B. Tumor samples were immunoblotted to determine expression and phosphorylation of indicated signaling proteins. C,D FVB mice bearing myc-CaP tumors were castrated. Starting one day before castration, the mice (n=10 per group) were injected twice daily with vehicle or AG490, an inhibitor of STAT3 phosphorylation. C. One week after castration, tumors were collected, paraffin-embedded, sectioned and stained with phospho-STAT3 antibody. D. Tumor volume was measured every 2-3 days as above. Results are averages±s.e.m. P values were determined and are indicated as above.
FIG. 23. LTβ is required for IKKα nuclear localization and STAT3 phosphorylation. Mice carrying Myc-CaP tumors were castrated and treated with vehicle or LTβR-Ig as described above. Paraffin-embedded sections were analyzed for IKKα nuclear localization and STAT3 phosphorylation.
Mouse prostate and CaP tissues and dissected metastatic tumors were immersed in 10% neutral buffered formalin before sectioning and paraffin embedding. […]

The subject of assay [2] is STAT3. Nature of the assay: STAT3 phosphorylation in IL-6-stimulated Myc-CaP cells (immunoblotting). It is filed as cell-based, mouse. The following applies: 1 hr pre-treatment, IL-6 20 ng/ml 30 min. As for the experimental part: as §1, §2
On the technique in general: In western blotting, separated proteins are transferred to a membrane and probed.

SMILES strings stand for the structures.

The text below walks through data of patent US9433686B2, “Methods for treating castration resistant prostate cancer and metastasis by reducing B-cell number and/or function” (The Regents of the University of California, priority 2011, dated 2016).

As for `N#C/C(=C/c1ccc(O)c(O)c1)C(=O)NCc1ccccc1` [A490], in the assay on IKK, the “IKK activation (IκBα phosphorylation)” value is reported as “did not inhibit”. The “CR-CaP growth / appearance after castration (tumor volume)” value in the assay with myc-CaP tumors is reported as “delayed”. Further, the “STAT3 activation (phosphorylation) in CaP cells of tumors” value in the assay on STAT3 [1] is on record as “inhibitable”.

Take `COc1c(Cl)cc2c([nH]c3cnccc32)c1NC(=O)c1cccnc1C` [ML120B, N-(6-chloro-7-methoxy-9H-β-carbolin-8-yl)-2-methylnicotinamide]: the “STAT3 activation (phosphorylation)” value with STAT3 [2] is on record as “did not inhibit”.
